Measurements as given in ChEMBL document CHEMBL1649216, “The diarylquinoline R207910 is bactericidal against Mycobacterium leprae in mice at low dose and administered intermittently” (Antimicrob Agents Chemother, 2009).
Active and inactive are the calls of the source.

Experiments:
Type in all cases: functional, organism-based
Mycobacterium leprae [1] = assay: Antimycobacterial activity against Mycobacterium leprae infected in CBA/J mouse assessed as microbial growth inhibition at 25 mg/kg, po administered 5 times weekly during logarithmic multiplication from day 60 to day 150 post infection measured on day 152 post infection; set-up: dose 25 mg/kg
Mycobacterium leprae [2] = assay: Antimycobacterial activity against Mycobacterium leprae infected in CBA/J mouse assessed as microbial growth inhibition at 100 mg/kg, po administered once weekly during logarithmic multiplication from day 60 to day 150 post infection measured on day 152 post infection; set-up: dose 100 mg/kg
Mycobacterium leprae [3] = assay: Antimycobacterial activity against Mycobacterium leprae infected in CBA/J mouse assessed as microbial growth inhibition at 30 mg/kg, po administered once weekly during logarithmic multiplication from day 60 to day 150 post infection measured on day 302 to 365 post infection; set-up: dose 30 mg/kg
Mycobacterium leprae [4] = assay: Antimycobacterial activity against Mycobacterium leprae infected in CBA/J mouse assessed as microbial growth inhibition at 50 mg/kg, po administered once monthly during logarithmic multiplication from day 60 to day 150 post infection measured on day 152 post infection; set-up: dose 50 mg/kg
Mycobacterium leprae [5] = assay: Antimycobacterial activity against Mycobacterium leprae infected in CBA/J mouse assessed as microbial growth inhibition at 3 mg/kg, po administered 5 times weekly during logarithmic multiplication from day 60 to day 150 post infection measured on day 228 post infection; set-up: dose 3 mg/kg
Mycobacterium leprae [6] = assay: Antimycobacterial activity against Mycobacterium leprae infected in CBA/J mouse assessed as microbial growth inhibition at 100 mg/kg, po administered once weekly during logarithmic multiplication from day 60 to day 150 post infection measured on day 302 to 365 post infection; set-up: dose 100 mg/kg
Mycobacterium leprae [7] = assay: Antimycobacterial activity against Mycobacterium leprae infected in CBA/J mouse assessed as microbial growth inhibition at 30 mg/kg, po administered once weekly during logarithmic multiplication from day 60 to day 150 post infection measured on day 152 post infection; set-up: dose 30 mg/kg
Mycobacterium leprae [8] = assay: Antimycobacterial activity against Mycobacterium leprae infected in CBA/J mouse assessed as microbial growth inhibition at 120 mg/kg, po administered once monthly during logarithmic multiplication from day 60 to day 150 post infection measured on day 302 to 365 post infection; set-up: dose 120 mg/kg
Mycobacterium leprae [9] = assay: Antimycobacterial activity against Mycobacterium leprae infected in CBA/J mouse assessed as microbial growth inhibition at 120 mg/kg, po administered once monthly during logarithmic multiplication from day 60 to day 150 post infection measured on day 228 post infection; set-up: dose 120 mg/kg
Mycobacterium leprae [10] = assay: Antimycobacterial activity against Mycobacterium leprae infected in CBA/J mouse assessed as microbial growth inhibition at 50 mg/kg, po administered once monthly during logarithmic multiplication from day 60 to day 150 post infection measured on day 302 to 365 post infection; set-up: dose 50 mg/kg
Mycobacterium leprae [11] = assay: Antimycobacterial activity against Mycobacterium leprae infected in CBA/J mouse assessed as microbial growth inhibition at 1 mg/kg, po administered 5 times weekly during logarithmic multiplication from day 60 to day 150 post infection measured on day 152 post infection; set-up: dose 1 mg/kg
Mycobacterium leprae [12] = assay: Antimycobacterial activity against Mycobacterium leprae infected in CBA/J mouse assessed as microbial growth inhibition at 25 mg/kg, po administered once weekly during logarithmic multiplication from day 60 to day 150 post infection measured on day 152 post infection; set-up: dose 25 mg/kg
Mycobacterium leprae [13] = assay: Antimycobacterial activity against Mycobacterium leprae infected in CBA/J mouse assessed as microbial growth inhibition at 25 mg/kg, po administered once monthly during logarithmic multiplication from day 60 to day 150 post infection measured on day 152 post infection; set-up: dose 25 mg/kg
Mycobacterium leprae [14] = assay: Antimycobacterial activity against Mycobacterium leprae infected in CBA/J mouse assessed as microbial growth inhibition at 25 mg/kg, po administered once weekly during logarithmic multiplication from day 60 to day 150 post infection measured on day 228 post infection; set-up: dose 25 mg/kg
Mycobacterium leprae [15] = assay: Antimycobacterial activity against Mycobacterium leprae infected in CBA/J mouse assessed as microbial growth inhibition at 30 mg/kg, po administered once weekly during logarithmic multiplication from day 60 to day 150 post infection measured on day 228 post infection; set-up: dose 30 mg/kg
Mycobacterium leprae [16] = assay: Antimycobacterial activity against Mycobacterium leprae infected in CBA/J mouse assessed as microbial growth inhibition at 3 mg/kg, po administered 5 times weekly during logarithmic multiplication from day 60 to day 150 post infection measured on day 152 post infection; set-up: dose 3 mg/kg
Mycobacterium leprae [17] = assay: Antimycobacterial activity against Mycobacterium leprae infected in CBA/J mouse assessed as microbial growth inhibition at 120 mg/kg, po administered once monthly during logarithmic multiplication from day 60 to day 150 post infection measured on day 152 post infection; set-up: dose 120 mg/kg
Mycobacterium leprae [18] = assay: Antimycobacterial activity against Mycobacterium leprae infected in CBA/J mouse assessed as microbial growth inhibition at 6 mg/kg, po administered 5 times weekly during logarithmic multiplication from day 60 to day 150 post infection measured on day 152 post infection; set-up: dose 6 mg/kg
Mycobacterium leprae [19] = assay: Antimycobacterial activity against Mycobacterium leprae infected in CBA/J mouse assessed as microbial growth inhibition at 100 mg/kg, po administered once weekly during logarithmic multiplication from day 60 to day 150 post infection measured on day 228 post infection; set-up: dose 100 mg/kg
Mycobacterium leprae [20] = assay: Antimycobacterial activity against Mycobacterium leprae infected in CBA/J mouse assessed as microbial growth inhibition at 50 mg/kg, po administered once weekly during logarithmic multiplication from day 60 to day 150 post infection measured on day 228 post infection; set-up: dose 50 mg/kg
Mycobacterium leprae [21] = assay: Antimycobacterial activity against Mycobacterium leprae infected in CBA/J mouse assessed as microbial growth inhibition at 100 mg/kg, po administered once monthly during logarithmic multiplication from day 60 to day 150 post infection measured on day 152 post infection; set-up: dose 100 mg/kg
Mycobacterium leprae [22] = assay: Antimycobacterial activity against Mycobacterium leprae infected in CBA/J mouse assessed as microbial growth inhibition at 50 mg/kg, po administered once weekly during logarithmic multiplication from day 60 to day 150 post infection measured on day 152 post infection; set-up: dose 50 mg/kg
Mycobacterium leprae [23] = assay: Antimycobacterial activity against Mycobacterium leprae infected in CBA/J mouse assessed as microbial growth inhibition at 25 mg/kg, po administered 5 times weekly during logarithmic multiplication from day 60 to day 150 post infection measured on day 228 post infection; set-up: dose 25 mg/kg
Mycobacterium leprae [24] = assay: Antimycobacterial activity against Mycobacterium leprae infected in CBA/J mouse assessed as microbial growth inhibition at 1 mg/kg, po administered 5 times weekly during logarithmic multiplication from day 60 to day 150 post infection measured on day 228 post infection; set-up: dose 1 mg/kg
Mycobacterium leprae [25] = assay: Antimycobacterial activity against Mycobacterium leprae infected in CBA/J mouse assessed as microbial growth inhibition at 12.5 mg/kg, po administered 5 times weekly during logarithmic multiplication from day 60 to day 150 post infection measured on day 228 post infection; set-up: dose 12.5 mg/kg
Mycobacterium leprae [26] = assay: Antimycobacterial activity against Mycobacterium leprae infected in CBA/J mouse assessed as microbial growth inhibition at 50 mg/kg, po administered once weekly during logarithmic multiplication from day 60 to day 150 post infection measured on day 302 to 365 post infection; set-up: dose 50 mg/kg
Mycobacterium leprae [27] = assay: Antimycobacterial activity against Mycobacterium leprae infected in CBA/J mouse assessed as microbial growth inhibition at 6 mg/kg, po administered 5 times weekly during logarithmic multiplication from day 60 to day 150 post infection measured on day 228 post infection; set-up: dose 6 mg/kg
Mycobacterium leprae [28] = assay: Antimycobacterial activity against Mycobacterium leprae infected in CBA/J mouse assessed as microbial growth inhibition at 100 mg/kg, po administered once monthly during logarithmic multiplication from day 60 to day 150 post infection measured on day 228 post infection; set-up: dose 100 mg/kg
Mycobacterium leprae [29] = assay: Antimycobacterial activity against Mycobacterium leprae infected in CBA/J mouse assessed as microbial growth inhibition at 12.5 mg/kg, po administered 5 times weekly during logarithmic multiplication from day 60 to day 150 post infection measured on day 152 post infection; set-up: dose 12.5 mg/kg
Mycobacterium leprae [30] = assay: Antimycobacterial activity against Mycobacterium leprae infected in CBA/J mouse assessed as microbial growth inhibition at 25 mg/kg, po administered once monthly during logarithmic multiplication from day 60 to day 150 post infection measured on day 228 post infection; set-up: dose 25 mg/kg
Mycobacterium leprae [31] = assay: Antimycobacterial activity against Mycobacterium leprae infected in CBA/J mouse assessed as microbial growth inhibition at 50 mg/kg, po administered once monthly during logarithmic multiplication from day 60 to day 150 post infection measured on day 228 post infection; set-up: dose 50 mg/kg

Measured: growth inhibition (GI)

COc1nc2ccc(Br)cc2cc1[C@@H](c1ccccc1)[C@@](O)(CCN(C)C)c1cccc2ccccc12
active: all assays above
